Patent US20200315960A1, “DRUG DELIVERY DEVICE AND METHOD” (BIORINGS LLC, priority 2019, published 2020)

What was measured:
human sperm = assay: Effect of various concentrations on the motility of human sperm; type: cell-based; conditions: for concentration shown to be spermiostatic: motility of human sperm; for spermiostatic effects: lower concentrations of albumin and dextran
Description: The effects of various concentrations of magnesium chloride, calcium chloride, ferrous sulfate, copper sulfate, and ferrous gluconate on the motility of human sperm were studied.

[1] = Effect on viscosity of cervical mucus; conditions: concentrations from 0.310% to a range of 1-2.5%

[Ca+2].[Cl-].[Cl-] [Calcium chloride]
concentration shown to be spermiostatic (human sperm): 25 mM

O=S(=O)([O-])[O-].[Cu+2] [Copper sulfate]
immobilization of sperm (human sperm; 25 mM solutions): 93.3%
immobilization of sperm (human sperm; 37.5 mM solutions): completely immobilized all the sperm
concentration shown to be spermiostatic (human sperm): 6.25 mM

O=C1O[C@H]([C@@H](O)CO)C(O)=C1O [L-ascorbic acid]
overall viscosity of the mucus [1]: increases in direct relationship with increasing concentrations

[Cl-].[Cl-].[Mg+2] [magnesium chloride]
concentration shown to be spermiostatic (human sperm): 35 mM

Ferrous sulfate
concentration that completely arrested the motility of human sperm (human sperm; complete arrest of motility): 10 mM

albumin
sperm completely immobilized (human sperm; 20% albumin): ~97%
sperm completely immobilized (human sperm; 40% albumin): ~97%
sperm motility (human sperm; albumin concentration 10%): decreased sperm motility almost close to that of 12.5 mM concentration of ferrous gluconate
spermiostatic effects (human sperm): not significant

dextran
sperm immobilized (human sperm; 1.25% solution of dextran): ~95%
spermiostatic effects (human sperm): not significant

ferrous gluconate
immobilization of sperm (human sperm; 25 mM solutions): 97.4%
immobilization of sperm (human sperm; 37.5 mM solutions): completely immobilized all the sperm
concentration shown to be spermiostatic (human sperm): 12.5 mM

ferrous gluconate [dihydrate form of ferrous gluconate]
onset of spermiostatic effect (human sperm; in the presence of the dihydrate form): immediate
